Source: publication PMC12074596, “The histone deacetylase inhibitor CT-101 flips the switch to fetal hemoglobin expression in sickle cell disease mice” (PLOS One, 2025)

Assays:
HbF expression = test system: HbF expression; parameters: method as in PMID 26045597; details: adults with SCD; cited from earlier work
β-YAC transgenic mice = assay: Complete blood counts, differentials and reticulocytes in β-YAC mice (Studies 1 and 2); assay type: in vivo, mouse
Method: (§2) Each treatment group consisted of six mice per group (3 males and 3 females), and data was combined for 2 replicates for statistical analysis (n = 12). We collected tail vein blood at weeks 0, 2, and 4 and analyzed complete blood counts and differentials using an automated Micros 60 device (HORIBA Medical/ABX Diagnostics, Irvine, CA). The level of F-cells and mean fluorescence intensity (MFI) was determined by flow cytometry as previously published [28].

HbF [1] = assay: Flow cytometry of F-cells and MFI in peripheral blood of β-YAC mice; assay type: in vivo, β-YAC transgenic mice; details: Study 1; HU 100 mg/kg; week 4; p < 0.001
Method: as §2
Flow cytometry was conducted on the FACSCanto machine (BD Biosciences, San Jose, CA) using gating parameters previously published by our group [28]. Briefly, the forward scatter and side scatter were set to gate erythroid cells, then during FLOWJO analysis, ‘log F-cell’‘ histograms (X-axis) generated to measure the percentage of HbF positive cells (F-cells) from total erythroid cells (Y-axis) after gating on the negative isotype control cells. The mean fluorescence intensity (MFI) to quantify the level of HbF protein per cell was generated by FLOWJO software.

Townes SCD mice [2] = assay: Survival, weight and behavior of SCD mice (Study 3); assay type: in vivo, mouse; details: both replicates combined
Method: The study design was the same as in Studies 1 and 2, using SCD mice (4–6 months old) dosed once daily by IP injections, with water, HU (100 mg/kg), vehicle (FORM 3), CT-101 in FORM-3 (10 mg/kg), and combined HU and CT-101 administration. The study period was 4 weeks, and two independent replicates were combined for statistical analysis (n = 8–12). Blood collected at weeks 0, 2, and 4 were analyzed for complete blood count and differential, and F-cells and MFI quantified by flow cytometry. Blood stained with acridine orange (BD retic-count reagent) quantified reticulocytes by flow cytometry [31].

Townes SCD mice [3] = assay: Complete blood counts, differentials and reticulocytes in SCD mice (Study 3); assay type: in vivo, mouse; details: HU 100 mg/kg; throughout the study; p < 0.01
Method: The study period was 4 weeks, and two independent replicates were combined for statistical analysis (n = 8–12). Blood collected at weeks 0, 2, and 4 were analyzed for complete blood count and differential, and F-cells and MFI quantified by flow cytometry. Blood stained with acridine orange (BD retic-count reagent) quantified reticulocytes by flow cytometry [31].

spleen = assay: Spleen size and hematoxylin and eosin histology in SCD mice; assay type: in vivo, Townes SCD mice
Method: (§1) At the end of the 4-week treatment period, approximately 700 μL of blood was collected from each mouse into K3-EDTA tubes (Becton Dickinson, Franklin Lakes, NJ; catalog #365974) by cardiac puncture for plasma isolation after euthanasia using carbon dioxide gas. Subsequently, spleens were harvested for tissue stains, immunohistology, and protein isolation. A part of the spleen was fixed with buffered formaldehyde, embedded in paraffin, and sectioned into ~[…] thick slices for staining with hematoxylin and eosin for histology of spleen structures using a Keyence microscope (Keyence Itasca, IL). The immuno-histology staining was performed on frozen spleen sections using sheep polyclonal antibody against HbF conjugated with FITC (Life Technologies Corporation; catalog #A80-136F) and counterstained with DAPI (4′,6-diamidino-2-phenylindole) to identify the cell nucleus. The spleen tissue was analyzed using the EVOS cell imaging system (ThermoFisher, Waltham, MA) under x40 magnifications. The FITC-positive cells were counted for 15 high-power fields per section, and the mean average of the fields was used for statistical analysis.

HbF [4] = assay: Immuno-histology of spleen with FITC anti-HbF antibody in SCD mice; assay type: in vivo, Townes SCD mice; details: end of four-week treatment
Method: as §1

micronuclei = assay: Micronuclei assay in SCD mouse blood; assay type: in vivo, Townes SCD mice; details: end of treatment; p < 0.05
Excerpt: DNA was stained with propidium iodide/phycoerythrin for simultaneous measurement of cell viability, followed by FACSCAN flow cytometry analysis. Propidium iodide/phycoerythrin supplied in the MN analysis kit (Litron Laboratories, Rochester, NY; catalog #PLUS-M) was used as a positive control for CD71-FITC; the number of MN positive cells were counted in cell positive for CD71 and MN as previously published.

histone H3 and H4 = assay: Western blot of histone acetylation in spleen of SCD mice; assay type: in vivo, Townes SCD mice; details: end of treatment
Method: The total splenic cells were processed for histone acetylation levels by Western blot as previously published by our group.
Acidic histone extraction was performed according to standard protocols described previously by our group. […] Western blot quantitative data were collected by densitometry analysis using Image J software.

[5] = Study 1, HU 100 mg/kg IP five days a week for four weeks

Row | Structure (SMILES) | HbF expression (HbF expression) | change in reticulocyte counts (β-YAC transgenic mice; Study 1, HU 100 mg/kg) | decrease in hematocrit (β-YAC transgenic mice; [5]) [%] | decrease in hemoglobin (β-YAC transgenic mice; [5]) [%] | decrease in platelets (β-YAC transgenic mice; [5]) [%] | decrease in total white cell counts (β-YAC transgenic mice; [5]) [%] | change in mean corpuscular volume of RBCs (β-YAC transgenic mice; Study 1, HU 100 mg/kg, p < 0.001) | effect on total white blood counts and platelets (β-YAC transgenic mice; Study 2, HU 100 mg/kg alone or with CT-101 10 mg/kg) | increase in F-cells (HbF [1]) [fold] | survival (Townes SCD mice [2]) [%] | decrease in platelet counts (Townes SCD mice [3]) [%] | decrease in overall spleen size (spleen; HU 100 mg/kg, four weeks, p < 0.01) [%] | spleen histology (hematoxylin and eosin) (spleen; end of four-week treatment) | increase in HbF-positive erythroid cells in spleen tissue (HbF [4]) [fold] | increased production of micronuclei (micronuclei) [fold] | change in total or acetylated histone H3 and H4 levels in spleen (histone H3 and H4)
1 | O=C(CCCCCCC(=O)Nc1ccccc1)NO [Vorinostat] | did not induce HbF expression | – | – | – | – | – | – | – | – | – | – | – | – | – | – | –
2 | NC(=O)NO [HU, hydroxyurea] | – | increase | 12 | 12 | 30 | 24 | increasing | decrease | 5.4 | 83 | 50 | 37 | decrease in hemorrhagic infarcts and maturing extramedullary hematopoiesis | 1.8 | 1.8 | not statistically significance differences
